Source: ChEMBL document CHEMBL1201862, “PubChem BioAssay data set” (2004)
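96-well plates; 48 h exposure; 5 concentrations. Endpoints by linear interpolation between flanking doses. Not reached: highest tested concentration assigned. GI50 = concentration required for 50% inhibition of growth.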 Calls of active or inactive are those of the source. Cut-off read from the data, not from the text of the source: active = GI50 up to about 1.1 µM and inactive = higher.

Legend:
Experiment in all cases: growth of human tumour cells (NCI), 48 h
TK-10 = test system: TK-10
SF-539 = test system: SF-539
SF-268 = test system: SF-268
SK-OV-3 = test system: SK-OV-3
HL-60 = test system: HL-60
NCI-H23 = test system: NCI-H23
SK-MEL-2 = test system: SK-MEL-2
RPMI-8226 = test system: RPMI-8226
SK-MEL-28 = test system: SK-MEL-28
HCT-116 = test system: HCT-116
Malme-3M = test system: Malme-3M
U-251 = test system: U-251
MOLT-4 = test system: MOLT-4
HOP-62 = test system: HOP-62
CAKI-1 = test system: CAKI-1
SNB-75 = test system: SNB-75
HCC 2998 = test system: HCC 2998

Measured: GI50

O=C(O)C12C3CCCC1C2CC3 (centres undefined)
inactive: TK-10 > 100 µM | SF-539 > 100 µM | SF-268 > 100 µM | SK-OV-3 > 100 µM | HL-60 > 100 µM | NCI-H23 > 100 µM | SK-MEL-2 > 100 µM | RPMI-8226 > 100 µM | SK-MEL-28 > 100 µM | HCT-116 > 100 µM | Malme-3M > 100 µM | U-251 > 100 µM | MOLT-4 > 100 µM | HOP-62 > 100 µM | CAKI-1 > 100 µM | SNB-75 > 100 µM

COc1ccc(C2=NN(C(C)=O)c3nc4ccccc4nc3O2)cc1
inactive: HCC 2998 > 100 µM | TK-10 21.3 µM | SF-539 17.8 µM | SF-268 31.3 µM | HL-60 > 100 µM | NCI-H23 55.2 µM | SK-MEL-2 8.02 µM | RPMI-8226 > 100 µM | SK-MEL-28 92.3 µM | HCT-116 53.3 µM | Malme-3M 70.6 µM | U-251 18.9 µM | MOLT-4 > 100 µM | HOP-62 23.1 µM | SNB-75 6.28 µM

COc1ccc(O)c2c1C(=O)CCCC2=O
inactive: HCC 2998 > 100 µM | TK-10 > 100 µM | SF-539 > 100 µM | SF-268 > 100 µM | SK-OV-3 > 100 µM | HL-60 > 100 µM | NCI-H23 > 100 µM | SK-MEL-2 > 100 µM | RPMI-8226 > 100 µM | SK-MEL-28 > 100 µM | HCT-116 > 100 µM | Malme-3M > 100 µM | U-251 > 100 µM | MOLT-4 > 100 µM | HOP-62 > 100 µM | CAKI-1 > 100 µM

CCN(CC)c1ccc(/N=C2\C=C(Cl)C(=O)c3ncccc32)c(C)c1
inactive: TK-10 4.37 µM | SF-539 12.4 µM | SK-OV-3 31.3 µM | HL-60 1.86 µM | NCI-H23 3.24 µM | SK-MEL-2 7.74 µM | RPMI-8226 3.37 µM | SK-MEL-28 8.2 µM | HCT-116 3.24 µM | Malme-3M 2.88 µM | U-251 4.88 µM | MOLT-4 2.88 µM | HOP-62 5.37 µM | CAKI-1 3.33 µM | SNB-75 14.4 µM

O=C1CCC(c2nc3ccccc3o2)C(=O)N1 (centres undefined)
inactive: HCC 2998 > 100 µM | TK-10 > 100 µM | SF-539 > 100 µM | SF-268 > 100 µM | SK-OV-3 > 100 µM | HL-60 > 100 µM | NCI-H23 > 100 µM | SK-MEL-2 > 100 µM | SK-MEL-28 > 100 µM | HCT-116 > 100 µM | Malme-3M > 100 µM | U-251 > 100 µM | MOLT-4 > 100 µM | HOP-62 > 100 µM | CAKI-1 > 100 µM | SNB-75 79.1 µM

C/C(=N\NS(=O)(=O)c1ccc(C)cc1)C(CN1CCCCC1)C(c1ccccc1)c1c(O)c2ccccc2oc1=O (centres undefined)
inactive: HCC 2998 > 100 µM | TK-10 > 100 µM | SF-539 > 100 µM | SF-268 > 100 µM | SK-OV-3 > 100 µM | HL-60 > 100 µM | NCI-H23 > 100 µM | SK-MEL-2 > 100 µM | RPMI-8226 > 100 µM | HCT-116 > 100 µM | Malme-3M > 100 µM | U-251 > 100 µM | HOP-62 > 100 µM | CAKI-1 > 100 µM | SNB-75 > 100 µM

CC(C)NC1CCCCC2c3ccccc3C12O (centres undefined)
inactive: TK-10 > 100 µM | SF-268 > 100 µM | SK-OV-3 > 100 µM | HL-60 > 100 µM | NCI-H23 > 100 µM | SK-MEL-2 > 100 µM | RPMI-8226 > 100 µM | SK-MEL-28 > 100 µM | HCT-116 > 100 µM | Malme-3M > 100 µM | U-251 > 100 µM | MOLT-4 > 100 µM | HOP-62 > 100 µM | SNB-75 > 100 µM

CN(C)c1nc(Oc2nc(N(C)C)nc(N(C)C)n2)nc(N(C)C)n1
inactive: HCC 2998 88.7 µM | TK-10 > 100 µM | SF-539 > 100 µM | SF-268 > 100 µM | SK-OV-3 > 100 µM | HL-60 52.5 µM | NCI-H23 72.6 µM | SK-MEL-2 > 100 µM | RPMI-8226 63.5 µM | SK-MEL-28 > 100 µM | HCT-116 > 100 µM | Malme-3M > 100 µM | U-251 75.2 µM | MOLT-4 > 100 µM | CAKI-1 > 100 µM | SNB-75 35.9 µM

CCCCCCCCCCCc1c(O)c(=O)c2c(oc3c(=O)c(CCCCCCCCCCC)c(O)c(=O)c3n2-c2ccc(N(C)C)cc2)c1=O
inactive: TK-10 15.6 µM | SF-539 20.3 µM | SF-268 22.2 µM | SK-OV-3 19.7 µM | HL-60 27.1 µM | NCI-H23 28.7 µM | SK-MEL-2 21.7 µM | RPMI-8226 91.2 µM | SK-MEL-28 18 µM | HCT-116 17.6 µM | Malme-3M 22.4 µM | U-251 21.4 µM | MOLT-4 > 100 µM | HOP-62 20.7 µM | CAKI-1 15.7 µM | SNB-75 23.7 µM

Clc1ccc(/N=N/c2nc3ccccc3nc2/N=N/c2ccc(Cl)cc2Cl)c(Cl)c1
inactive: HCC 2998 > 100 µM | TK-10 > 100 µM | SF-539 > 100 µM | SF-268 > 100 µM | HL-60 31.5 µM | NCI-H23 > 100 µM | SK-MEL-2 > 100 µM | RPMI-8226 > 100 µM | SK-MEL-28 > 100 µM | HCT-116 > 100 µM | Malme-3M > 100 µM | U-251 > 100 µM | MOLT-4 29.4 µM | HOP-62 > 100 µM | SNB-75 22.9 µM

C/C(=N\NC(=O)CC#N)c1c(O)cc(C)oc1=O
inactive: HCC 2998 > 100 µM | TK-10 > 100 µM | SF-539 > 100 µM | SF-268 > 100 µM | SK-OV-3 > 100 µM | HL-60 > 100 µM | NCI-H23 > 100 µM | SK-MEL-2 > 100 µM | SK-MEL-28 > 100 µM | HCT-116 > 100 µM | Malme-3M > 100 µM | U-251 > 100 µM | MOLT-4 > 100 µM | HOP-62 > 100 µM | CAKI-1 > 100 µM | SNB-75 > 100 µM

NCc1cc(O)c(O)c(O)c1
inactive: TK-10 > 100 µM | SF-268 > 100 µM | SK-OV-3 > 100 µM | HL-60 80.7 µM | SK-MEL-2 > 100 µM | RPMI-8226 33.7 µM | SK-MEL-28 > 100 µM | HCT-116 63.5 µM | Malme-3M > 100 µM | U-251 > 100 µM | MOLT-4 > 100 µM | HOP-62 > 100 µM | CAKI-1 > 100 µM | SNB-75 > 100 µM

C=CCc1cc(OC)c2c(c1)C(O)CC(c1ccc(OC)c(OC)c1)O2 (centres undefined)
inactive: HCC 2998 > 100 µM | TK-10 > 100 µM | SF-539 78.2 µM | SF-268 > 100 µM | SK-OV-3 > 100 µM | HL-60 24.9 µM | NCI-H23 > 100 µM | SK-MEL-2 > 100 µM | SK-MEL-28 > 100 µM | HCT-116 > 100 µM | U-251 > 100 µM | MOLT-4 38.6 µM | HOP-62 > 100 µM | CAKI-1 73.3 µM | SNB-75 89.5 µM
